Literature values, collected in US20240188563A1, “CATHETER LOCK SOLUTIONS INCORPORATING NITRIC OXIDE RELEASING LIPOSOMES” (Becton, Dickinson and Company, priority 2022, published 2024).

Test system: platelets
Conditions: extracorporeal circuit

**Q.** Which “Platelet count after 4 h (% of initial)” value does the source give for `CC(=O)N[C@H](C(=O)O)C(C)(C)SN=O` [SNAP only, S-nitroso-N-acetyl penicillamine] here?
**A.** The value was “vs. 50% (SNAP only)”.
